# Measured values from patent publication US20080121012A1, “Electrode Calibration” (priority 2004, published 2008).
# Experiments:
# [1] = cited from earlier work
# [2] = Detection of CO release using the myoglobin assay (conversion of deoxy-Mb to MbCO); format: physicochemical
# Procedure: The release of CO from CORM-A1 (Na2[H3BCOO]) was assessed spectrophotometrically by measuring the conversion of deoxymyoglobin (deoxy-Mb) to carbonmonoxy myoglobin (MbCO) in a manner previously reported (refs. 3, 4, 5). A small aliquot of CORM-A1 (60 μM final concentration) was added to 1 ml deoxy-Mb (≈53 μM) in phosphate buffer and changes in the Mb spectra were recorded over time. The amount of MbCO formed was quantified by measuring the absorbance at 540 nm (extinction coefficient=[…]). In order to examine the effect of pH on the rate of CO liberation from CORM-A1, experiments were conducted using solutions of myoglobin in 0.04 M phosphate buffer prepared at different pHs (7.4, 7.0, 6.5 and 5.5). The amount of MbCO formed was plotted over time and the half-life of CORM-A1 at different pHs and temperatures was calculated from the fitted curves.
# The conversion of deoxy-Mb to MbCO can be followed over time by measuring the changes in the absorption spectra of this protein. […] The Mb appears to be fully saturated 2 h after addition of CORM-A1 (see curve with filled diamonds in FIG. 1A). […] Specifically, from the fitted curves shown in FIG. 2A we can calculate that the half-lives of CORM-A1 at 37° C. are as follows: 21 min at pH=7.4; 7.1 min at pH=7.0; 3.3 min at pH=6.5; and 2.5 min at pH=5.5.
# [3] = Detection of CO release using an amperometric CO sensor; format: physicochemical; conditions: 20 μM; for dissociation rate constant of CO / half-life: 37° C.
# From the text: The release of CO from CORM-A1 was also detected using a prototype electrode purchased from World Precision Instrument (Stevenage, Herts, UK). This CO electrode is a membrane-covered amperometric sensor which has been designed on a basic operating principle similar to the nitric oxide (NO) sensor (ISO-NOP series, World Precision Instruments). The CO sensor can be connected to the ISO-NO Mark II meter for detection of the current signals providing that the poise potential is set to a different value (900 mV for CO as opposed to 860 mV for NO). In principle, CO diffuses through the gas permeable membrane and is then oxidized to CO2 on the working electrode. This oxidation creates a current whose magnitude can be related directly to the concentration of CO in solution. The CO sensor was used to generate standard curves and calculate the rates of CO release from CORM-A1 at different pHs and temperatures. The electrode was immersed into the solutions at different pHs and equilibrated for 30 min prior to addition of CORM-A1. For the experiments conducted at 37, 30, 25 and 20° C., the solutions were maintained at the desired temperature using a Grant W6 thermostat (Cambridge, England).
# CORM-A1 was also tested for its ability to liberate CO using an amperometric electrode sensitive to CO. […] A standard curve generated at pH=5.5 using CORM-A1 in a range between 10 and 50 μM indicated a good linear correlation (R^2=0.998) between the concentrations used and the electrode response (FIG. 3B). Therefore, a concentration of 20 μM CORM-A1 was then used to calculate the rate of CO dissociation from CORM-A1 at different pHs and temperatures. […] Specifically, from the curves shown in FIG. 3D, we can calculate that the initial rate of CO release at pH=5.5 is 6.84 μM/min at 37° C., 3.83 μM/min at 30° C., 2.16 μM/min at 25° C. and 1.22 μM/min at 20° C. Thus, the spontaneous liberation of CO from CORM-A1 in aqueous solutions is both pH- and temperature-dependent.
Molecule,solubility [1],"time until Mb is fully saturated with CO ([2]; 60 μM, 37° C., pH=7.4) [h]","mole of CO formed per mole of compound ([2]; pH=5.5, standard curve)",dissociation rate constant of CO ([3]; pH=4.0) [s⁻¹],dissociation rate constant of CO ([3]; pH=5.5) [s⁻¹],half-life ([3]; pH=5.5) [min],dissociation rate constant of CO ([3]; pH=7.4) [s⁻¹],half-life ([3]; pH=7.4) [min],"initial rate of CO release ([3]; pH=5.5, 20° C.) [µM/min]","initial rate of CO release ([3]; pH=5.5, 25° C.) [µM/min]","initial rate of CO release ([3]; pH=5.5, 30° C.) [µM/min]","initial rate of CO release ([3]; pH=5.5, 37° C.) [µM/min]"
"[C-]#[O+].[C-]#[O+].[C-]#[O+].[C-]#[O+].[C-]#[O+].[C-]#[O+].[Cl][Ru][Cl].[Cl][Ru][Cl] [CORM-2, tricarbonyldichlororuthenium(II) dimer]",soluble only in organic solvents,–,–,–,–,–,–,–,–,–,–,–
"[C-]#[O+].[C-]#[O+].[C-]#[O+].[C-]#[O+].[C-]#[O+].[C-]#[O+].[C-]#[O+].[C-]#[O+].[C-]#[O+].[C-]#[O+].[Mn].[Mn] [CORM-1, manganese decacarbonyl]",soluble only in organic solvents,–,–,–,–,–,–,–,–,–,–,–
sodium boranocarbonate [CORM-A1],–,2,one,0.011,0.0058,1.96,0.00055,21.06,1.22,2.16,3.83,6.84
